Measurements published in article PMC4359537, “Pharmacological characterisation of murine α4β1δ GABAA receptors expressed in Xenopus oocytes” (BMC Neuroscience, 2015).
“And” between values parts separate entries of the source, which are not always exact repeats. Identical values can stand only once. “Also recorded” adds a separate entry of the source. Like-named read-outs stand apart in the source and are kept apart here.

What was measured:
[1] = biological target: T1, α4β1δ receptors (UniProt P18506+P50571+Q9D6F4); experiment: Two-electrode voltage-clamp of murine α4β1δ GABAA receptors expressed in Xenopus oocytes; format: cell-based, mouse
T1 construct: expressed in transfected cells; host or cells: Xenopus laevis oocytes, cDNA-injected (pRK5 vector), ratio 1:1:5
Protocol: (§1) Oocytes from Xenopus laevis toads were prepared as described. […] To obtain free oocytes, ovarian lobes were cut into pieces and incubated in OR2 (85 mM NaCl, 5 mM HEPES, 1 mM MgCl2, pH adjusted to 7.6 with KOH) supplemented with 2-2.5 mg/mL collagenase type 1 (Lorne Laboratories, Danehill, UK) for 3-4 hrs. Oocytes were washed several times in OR2 and subsequently in Barth’s solution (88 mM NaCl, 1 mM KCl, 0.33 mM Ca(NO3)2, 0.41 mM CaCl2, 0.82 mM MgSO4, 2.4 mM NaHCO3, 10 mM HEPES, pH adjusted to 7.6 with NaOH) to isolate cells and remove follicular membranes. After preparation, the oocytes were injected with 27 or 55 nL of 30 ng/μL cDNA in a ratio of 1:1 (α4β1) or 1:1:5 (α4β1δ). Oocytes were subsequently maintained at 18°C in Barth’s solution supplemented with gentamycin (Invitrogen, Paisley, UK).
(§2) Electrodes were filled with 3 M KCl and had resistances of 0.5 to 3 MΩ. The oocytes were clamped at a holding potential of -60 mV and were perfused with buffer (100 mM NaCl, 2 mM KCl, 2 mM CaCl2, 1 mM MgCl2, 5 mM HEPES, pH adjusted to 7.4 with NaOH) throughout the recordings. All currents were adjusted when necessary for voltage drop using equation 1:1 I=Imeasured⋅Vh−Vrev/Vh−Vrev+ΔV
(§3) Drugs were applied using a fast application system coupled to a small bath volume ([…]), enabling drug onset times of ~ 10 ms.
(§4) For each co-application, the peak-response was measured. […] All monophasic inhibition-curves were fitted to a modified version of equation 2.
Normalized responses were pooled and plotted as mean ± SEM from at least four different oocytes taken from at least two different Xenopus toads. For statistical evaluation, a repeated measures ANOVA with Dunnett’s post test was used. The significance level was set at *P < 0.05, **P < 0.01, ***P < 0.001. For inhibition curves, an F-test was performed to determine whether the data was either monophasic or biphasic.

[2] = biological target: T2, α4β1 receptors (Mus musculus, UniProt P50571+Q9D6F4); experiment: Two-electrode voltage-clamp of murine α4β1 GABAA receptors expressed in Xenopus oocytes; format: cell-based; conditions: for EC50: GABA-activated peak currents, oocytes clamped at -60 mV
T2 construct: expressed in transfected cells; host or cells: Xenopus laevis oocytes, cDNA-injected (pRK5 vector), ratio 1:1
Protocol: as §1, §2, §3, §4

[3] = tested on: α6β3δ receptors; conditions: cited from earlier work
[4] = biological target: α1β2γ2 receptors; conditions: steady-state GABA responses, HEK293 cells; cited from earlier work
[5] = biological target: α2β1γ2 receptors; conditions: Xenopus oocytes; cited from earlier work
[6] = Hill coefficient of GABA concentration response curve
[7] = depending upon expression levels
[8] = inhibition of steady-state (desensitized) response after 70 s co-application with GABA EC75 (3 μM)
[9] = inhibition of peak response to GABA EC20 after pre-application
[10] = inhibition of peak response to GABA EC75 (3 μM), 1 min pre-incubation
[11] = GABA EC75 (8 μM), biphasic inhibition

T1 sequence (Q9D6F4 36-552): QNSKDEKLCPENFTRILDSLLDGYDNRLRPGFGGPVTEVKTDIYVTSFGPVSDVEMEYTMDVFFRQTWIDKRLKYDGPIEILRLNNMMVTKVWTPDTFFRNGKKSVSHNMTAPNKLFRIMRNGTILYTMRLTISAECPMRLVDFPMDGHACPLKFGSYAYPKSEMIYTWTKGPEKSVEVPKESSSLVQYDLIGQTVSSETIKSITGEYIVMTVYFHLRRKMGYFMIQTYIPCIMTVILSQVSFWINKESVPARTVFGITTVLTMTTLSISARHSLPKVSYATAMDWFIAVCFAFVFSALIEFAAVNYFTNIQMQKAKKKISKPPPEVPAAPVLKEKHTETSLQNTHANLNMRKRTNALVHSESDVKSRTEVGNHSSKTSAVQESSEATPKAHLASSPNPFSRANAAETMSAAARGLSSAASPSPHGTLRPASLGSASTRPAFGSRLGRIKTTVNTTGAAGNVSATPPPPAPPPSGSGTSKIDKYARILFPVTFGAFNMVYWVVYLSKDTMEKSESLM
T1 sequence (P50571 26-474): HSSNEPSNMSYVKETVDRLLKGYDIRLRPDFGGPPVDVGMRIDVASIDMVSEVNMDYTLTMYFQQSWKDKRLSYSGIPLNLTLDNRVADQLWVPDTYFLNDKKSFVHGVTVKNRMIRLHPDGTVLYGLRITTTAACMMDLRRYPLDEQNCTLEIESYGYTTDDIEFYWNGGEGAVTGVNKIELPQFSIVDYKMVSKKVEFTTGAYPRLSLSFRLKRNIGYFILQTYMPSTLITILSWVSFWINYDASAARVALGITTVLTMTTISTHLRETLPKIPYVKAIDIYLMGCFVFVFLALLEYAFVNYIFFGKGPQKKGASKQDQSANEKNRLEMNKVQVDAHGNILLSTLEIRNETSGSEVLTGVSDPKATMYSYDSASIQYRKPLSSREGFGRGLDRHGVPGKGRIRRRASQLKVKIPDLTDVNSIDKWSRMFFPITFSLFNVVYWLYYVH
T1 sequence (P18506 17-449 limits assumed): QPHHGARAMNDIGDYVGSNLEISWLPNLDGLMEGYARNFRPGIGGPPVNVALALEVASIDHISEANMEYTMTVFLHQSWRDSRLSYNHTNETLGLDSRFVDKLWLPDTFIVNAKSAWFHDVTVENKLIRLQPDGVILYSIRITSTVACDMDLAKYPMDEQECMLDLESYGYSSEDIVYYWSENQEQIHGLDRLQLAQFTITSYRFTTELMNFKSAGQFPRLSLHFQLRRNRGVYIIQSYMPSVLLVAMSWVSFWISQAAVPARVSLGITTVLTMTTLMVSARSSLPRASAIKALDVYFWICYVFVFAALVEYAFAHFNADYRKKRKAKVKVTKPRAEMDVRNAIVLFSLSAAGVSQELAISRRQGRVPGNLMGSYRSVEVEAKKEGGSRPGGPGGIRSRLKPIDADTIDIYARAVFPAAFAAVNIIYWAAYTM
T2 sequence (Q9D6F4 36-552): as the sequence (Q9D6F4 36-552) above
T2 sequence (P50571 26-474): as the sequence (P50571 26-474) above

NCCCC(=O)O [GABA, γ-Aminobutyric acid]
nH (± SEM) [1, 6]: 1.1 and 1.1 ± 0.11 | maximal currents to GABA [1, 7]: 300 to 3000 nA | EC50 ([2]; read-out: EC50): 2700 nM | EC50 ([2]; read-out: pEC50 ± SEM (converted)): 2750 nM | nH (± SEM) [2, 6]: 0.87 and 0.87 ± 0.079 | maximal currents to GABA [2, 7]: 100 to 3000 nA

[Cl][Cu][Cl] [Cu^2+]
nH (± SEM) ([1]; Hill slope of inhibition curve, steady-state response, GABA EC75): −1.2 ± 0.13 | maximal inhibition of desensitized GABA responses ([1]; at 10 μM, GABA EC75, oocytes): 98 % inhibition | IC50 [1, 8]: 820 nM | pIC50 ± SEM [1, 8]: 6.09 ± 0.04 | maximal inhibition of the steady-state response ([3]; HEK293): ~ 68% | IC50 ([3]; steady-state GABA responses, HEK293 cells): 65 nM | IC50 [4]: 85000 nM

O=C(N/N=C/c1ccccc1O)c1ccccc1O [SCS, salicylidine salicylhydrazide]
steady-state level of inhibition ([1]; GABA EC20, incomplete inhibition of the GABA current): 67.2 ± 3.2 % of control | IC50 [1, 9]: 4.2 nM | pIC50 ± SEM [1, 9]: 8.37 ± 0.25 | IC50 [5]: 4.36 nM | maximum inhibition [5]: ~ 33%

C[C@]12CC[C@@H](O)C[C@H]1CC[C@@H]1[C@@H]2CC[C@]2(C)[C@@H](C(=O)CO)CC[C@@H]12 [THDOC, tetrahydro-deoxycorticosterone]
potentiation of GABA peak-response ([1]; THDOC 30 and 100 nM co-applied with GABA EC7, P < 0.05): significantly increased; also recorded: significant increase; also recorded: able to potentiate

[Cl-].[Cl-].[Zn+2] [Zn^2+]
nH (± SEM) ([1]; Hill slope of inhibition curve, peak response, GABA EC75): −0.75 ± 0.041 | potency shift in IC50 values, α4β1δ versus α4β1 ([1]; from low micromolar to mid nanomolar): approximately 60 fold | IC50 [1, 10]: 3300 nM | pIC50 ± SEM [1, 10]: 5.48 ± 0.03 | share of the total inhibition, high potency component (IC50A) [2, 11]: ~ 25% | share of the total inhibition, lower potency component (IC50B) [2, 11]: ~ 75% | pIC50A ± SEM ([2]; GABA EC75 (8 μM), high potency component of two-site fit): 9.87 ± 0.22 | IC50 ([2]; GABA EC75 (8 μM), high potency component of two-site fit, read-out: IC50A): 0.13 nM | pIC50B ± SEM ([2]; GABA EC75 (8 μM), lower potency component of two-site fit): 7.25 ± 0.13 | IC50 ([2]; GABA EC75 (8 μM), lower potency component of two-site fit, read-out: IC50B): 56 nM | nH (± SEM) ([2]; Hill slope of IC50B component, GABA EC75): -1.1 ± 0.13
